ChEMBL document CHEMBL1130571, “Synthesis and evaluation of novel-N-[2-(bis-aryl-methoxy)ethyl-N-aralkyl-,-alkanediamines as potent and selective dopamine reuptake inhibitors: Seco analogs of GBR12935 and GBR12909” (Bioorg Med Chem Lett, 1997)
Structures can show the parent of a compound that is named as a salt.

Columns and labels:
[1] = molecular target: Norepinephrine transporter (Rattus norvegicus, UniProt Q9WTR4); experiment: Norepinephrine transporter activity was determined by the ability of compound to inhibit the neurotransmitter norepinephrine-NE reuptake system using [3H]norepinephrine as radioligand
[2] = molecular target: Sodium-dependent dopamine transporter (Rattus norvegicus, UniProt P23977); experiment: Compound was tested for its ability to inhibit the neurotransmitter dopamine-DA reuptake system using [3H]dopamine as radioligand
[3] = Selectivity of compound towards DA transporter to that of NE transporter
[4] = molecular target: Sodium-dependent serotonin transporter (Rattus norvegicus, UniProt P31652); experiment: Compound was tested for its ability to inhibit the neurotransmitter serotonin-5-HT reuptake system using [3H]5-HT as radioligand
Sequence of Sodium-dependent serotonin transporter (P31652 whole entry): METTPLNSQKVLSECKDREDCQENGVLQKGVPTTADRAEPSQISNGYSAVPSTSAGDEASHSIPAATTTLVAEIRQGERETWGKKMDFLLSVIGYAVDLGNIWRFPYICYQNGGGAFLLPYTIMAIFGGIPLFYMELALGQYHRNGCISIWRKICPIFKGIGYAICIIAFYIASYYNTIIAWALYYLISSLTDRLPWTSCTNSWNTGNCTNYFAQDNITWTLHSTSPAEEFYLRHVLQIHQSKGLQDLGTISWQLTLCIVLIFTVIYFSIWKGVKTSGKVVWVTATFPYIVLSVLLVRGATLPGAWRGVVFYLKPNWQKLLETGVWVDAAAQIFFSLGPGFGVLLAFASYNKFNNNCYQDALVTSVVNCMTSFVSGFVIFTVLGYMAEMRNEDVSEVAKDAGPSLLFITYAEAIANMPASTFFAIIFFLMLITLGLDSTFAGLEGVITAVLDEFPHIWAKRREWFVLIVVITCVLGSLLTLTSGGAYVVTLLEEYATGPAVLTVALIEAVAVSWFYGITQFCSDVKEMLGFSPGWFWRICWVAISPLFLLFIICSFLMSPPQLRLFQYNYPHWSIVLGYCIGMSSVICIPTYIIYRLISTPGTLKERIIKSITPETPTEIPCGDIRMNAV

Sequence of Norepinephrine transporter (Q9WTR4 whole entry): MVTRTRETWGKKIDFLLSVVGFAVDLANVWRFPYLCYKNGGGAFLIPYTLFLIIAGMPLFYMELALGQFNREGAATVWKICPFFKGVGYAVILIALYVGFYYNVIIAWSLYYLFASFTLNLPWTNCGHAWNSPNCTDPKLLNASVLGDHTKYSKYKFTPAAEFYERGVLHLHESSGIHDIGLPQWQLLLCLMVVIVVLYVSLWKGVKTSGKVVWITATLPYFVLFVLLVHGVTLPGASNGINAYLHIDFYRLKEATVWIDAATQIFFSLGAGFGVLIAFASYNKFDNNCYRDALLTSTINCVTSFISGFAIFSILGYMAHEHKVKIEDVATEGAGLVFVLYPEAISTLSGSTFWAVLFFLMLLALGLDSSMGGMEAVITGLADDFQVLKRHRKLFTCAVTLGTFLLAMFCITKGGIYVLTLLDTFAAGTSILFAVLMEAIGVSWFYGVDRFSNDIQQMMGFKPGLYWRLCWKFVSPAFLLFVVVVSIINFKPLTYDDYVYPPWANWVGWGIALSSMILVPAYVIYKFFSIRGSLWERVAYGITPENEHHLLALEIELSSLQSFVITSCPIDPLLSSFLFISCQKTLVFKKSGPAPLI
Sequence of Sodium-dependent dopamine transporter (P23977 whole entry): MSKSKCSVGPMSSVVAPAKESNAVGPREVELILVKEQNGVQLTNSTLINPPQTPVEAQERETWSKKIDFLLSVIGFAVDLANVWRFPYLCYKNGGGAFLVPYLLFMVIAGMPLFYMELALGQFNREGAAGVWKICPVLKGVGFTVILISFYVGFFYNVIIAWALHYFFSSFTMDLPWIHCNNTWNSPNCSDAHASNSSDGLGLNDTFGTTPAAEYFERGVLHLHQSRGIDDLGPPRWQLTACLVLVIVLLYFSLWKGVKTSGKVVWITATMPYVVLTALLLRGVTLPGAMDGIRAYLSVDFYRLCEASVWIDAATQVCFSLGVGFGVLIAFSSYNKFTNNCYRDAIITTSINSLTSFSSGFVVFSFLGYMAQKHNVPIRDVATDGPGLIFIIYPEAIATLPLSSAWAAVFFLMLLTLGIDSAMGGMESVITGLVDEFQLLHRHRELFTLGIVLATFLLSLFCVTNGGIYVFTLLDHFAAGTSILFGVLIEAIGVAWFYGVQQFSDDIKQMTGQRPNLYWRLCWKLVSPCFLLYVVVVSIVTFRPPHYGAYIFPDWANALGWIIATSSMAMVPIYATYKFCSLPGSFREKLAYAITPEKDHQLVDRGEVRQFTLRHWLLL

SMILES	IC50 [1] [nM]	IC50 [2] [nM]	Selectivity [3]	IC50 [4] [nM]
I/C=C/CN1CCN(CCOC(c2ccccc2)c2ccccc2)CC1	> 10000	505	> 20	> 10000
CN(CCCc1ccccc1)CCN(C)CCOC(c1ccc(F)cc1)c1ccc(F)cc1	> 10000	10	> 1000	1500
c1ccc(CCCNCCNCCOC(c2ccccc2)c2ccccc2)cc1	> 10000	1230	> 8	> 10000
c1ccc(CCCNCCCNCCOC(c2ccccc2)c2ccccc2)cc1	> 10000	150	> 65	> 10000
CC(NC(C)(C)C)C(=O)c1cccc(Cl)c1 (stereo not given) [BUPROPION HYDROCHLORIDE]	–	1230	–	–
Fc1ccc(C(OCCNCCNCCCc2ccccc2)c2ccc(F)cc2)cc1	> 10000	49	> 200	500
I/C=C\CN1CCN(CCOC(c2ccccc2)c2ccccc2)CC1	2190	780	3	> 10000
